TGI and GI50 data for 7 molecules are collected here from PubChem BioAssay (NCI).

Some test systems named below: P388/ADR leukemia; SN12K1 renal; DMS 273 small cell lung; SNB-78 CNS; KM20L2 colon; P388 leukemia; LXFL 529 NSCLC; RXF-631 renal.
What all share (assay): NCI tumour cell line growth inhibition, 48 h

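A five-concentration, 48-hour dose response in 96-well plates underlies each endpoint, interpolated linearly between surrounding concentrations. GI50 = concentration required for 50% inhibition of growth. The concentration for full growth arrest is given as TGI.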 Where only a bound is given, the exact number is not on record here.

Turning to `CN(C)CCNC(=O)c1cccc2c1C(=O)c1ccccc1C2=O`, the TGI was 48.4 µM in the assay on P388/ADR leukemia; above 100 µM in the assay with SN12K1 renal; 56.6 µM in the assay on DMS 273 small cell lung; above 86.6 µM in the assay with SNB-78 CNS; 77 µM with KM20L2 colon; 43.9 µM with P388 leukemia.

Turning to `Nc1nnc(N)n1N`, the TGI in the assay with LXFL 529 NSCLC, with DMS 273 small cell lung, in the assay on SNB-78 CNS and in the assay with RXF-631 renal was above 100 µM throughout.

Take `COc1cc(/C=C/c2ccc(OC)c(OC)c2)oc(=O)c1`: the TGI with P388/ADR leukemia, in the assay with SN12K1 renal, in the assay on DMS 273 small cell lung, with SNB-78 CNS, in the assay with KM20L2 colon and in the assay with P388 leukemia was above 250 µM in each case.

`ClCCCN1CCN(CCCl)CC1`: the TGI is above 529 µM in the assay with P388/ADR leukemia; 575 µM in the assay on SN12K1 renal; 475 µM in the assay with DMS 273 small cell lung; above 567 µM in the assay with SNB-78 CNS; above 1000 µM with KM20L2 colon; above 840 µM in the assay on P388 leukemia.

As to `CCC1(O)C(=O)OCc2c1cc1n(c2=O)Cc2cc3cc4c(cc3nc2-1)OCO4` (stereo unspecified), in the assay on LXFL 529 NSCLC, the GI50 is 0.128 µM. The TGI was 2.27 µM in the assay with LXFL 529 NSCLC; below 0.0172 µM with P388/ADR leukemia; 0.331 µM with SN12K1 renal; 0.0151 µM with DMS 273 small cell lung; above 57.8 µM in the assay with SNB-78 CNS; 0.738 µM in the assay on KM20L2 colon. Besides, the TGI in the assay on RXF-631 renal was found to be 1.13 µM; in the assay with P388 leukemia, 0.117 µM.

Turning to `Cc1ccc(C(=O)Nc2ccc(S(=O)(=O)O)c3cc(S(=O)(=O)O)cc(S(=O)(=O)O)c23)cc1NC(=O)c1cccc(NC(=O)Nc2cccc(C(=O)Nc3cc(C(=O)Nc4ccc(S(=O)(=O)O)c5cc(S(=O)(=O)O)cc(S(=O)(=O)O)c45)ccc3C)c2)c1`, the TGI in the assay with LXFL 529 NSCLC, with DMS 273 small cell lung, with SNB-78 CNS and with KM20L2 colon was above 100 µM throughout.

`COc1ccc(C2CC(c3sc(Nc4ccc(C)cc4)nc3C)=NN2)cc1` (stereo unspecified): the TGI in the assay on P388/ADR leukemia was 24.3 µM; with SN12K1 renal it was 28.9 µM; with DMS 273 small cell lung, 38.5 µM; in the assay on SNB-78 CNS, 52 µM; in the assay on KM20L2 colon it was 31.3 µM; in the assay with P388 leukemia, 20.3 µM.
